Laboratory results published in US10913781B2, “Pepducin design and use” (Tufts Medical Center, Inc., priority 2011, dated 2021).
Peptide text beside a SMILES is read from it. * marks the point of attachment. Palmitoyl = CCCCCCCCCCCCCCCC(=O)*

Tests used:
PAR2 [1] = target: T1, PAR2 (Homo sapiens, UniProt P55085); experiment: PLC-b inositol phosphate formation, PAR2 (SLIGRL); assay type: cell-based; design: expressed in transfected cells; host or cells: COS7
Protocol: (A) PAR2 antagonist pepducins P2pal-18S and P2pal-14GQ inhibit calcium flux induced by PAR2 (SLIGRL) (SEQ ID NO:4) but not PAR1 (TFLLRN) (SEQ ID NO:2) agonists. SW620 cells were stably transfected with PAR1 and pretreated for 1 min with various concentrations of P2pal-18S or P2pal-14GQ and then stimulated with 30 μM PAR agonist. […] Cells were stimulated with 1 μM TFLLRN (SEQ ID NO:2), 1 μM SLIGRL (SEQ ID NO:4) or 100 μM AYPGKF (SEQ ID NO:5) and [^3H]-InsP formation measured over 30 min. (C) SW620 cells were treated with the indicated concentrations of P2pal-18S or P2pal-14GQ in the upper well of an 8-μm pore Boyden chamber and allowed to migrate for 18 h towards 10 μM of the PAR2 specific agonist SLIGRL in the lower chamber. The migration to RPMI/0.1% FBS represents random migration. (D) Migration of HEK cells transiently transfected with PAR2 (wild-type, WT), or PAR2-R36A/PAR2-RQ toward chemotactic gradients of 30 nM trypsin in the absence or presence of the indicated concentration of P2pal-18S for 18 h in a transwell apparatus ([…]). Data (n=2-4) are mean±SEM. *, P<0.05 and **, P<0.005.
Additionally, we tested whether P2pal-18S inhibited proteolytic cleavage of PAR2 or endocytosis (DeFea K A, et al. (2000) J Cell Biol 148: 1267-81; Roosterman D, et al. (2003) Am J Physiol Cell Physiol 284: C1319-29; Stalheim L, et al. (2005) Mol Pharmacol 67: 78-87). […]

PAR2 [2] = target: T1, PAR2; experiment: Ligand-dependent endocytosis of PAR2; assay type: cell-based
Description: Additionally, we tested whether P2pal-18S inhibited proteolytic cleavage of PAR2 or endocytosis (DeFea K A, et al. (2000) J Cell Biol 148: 1267-81; Roosterman D, et al. (2003) Am J Physiol Cell Physiol 284: C1319-29; Stalheim L, et al. (2005) Mol Pharmacol 67: 78-87). […] Therefore, the P2pal-18S i3 loop pepducin can inhibit PAR2-dependent calcium signaling, PLC-b inositol phosphate formation, and cell migration, but not proteolytic cleavage or endocytosis.

PAR2 [3] = target: PAR2 (Mus musculus, UniProt P55086); experiment: Mast cell conditioned media-induced mouse paw edema; assay type: in vivo; design: from tissue; host or cells: living C57BL/6 mice, hindpaw; details: 10 mg/kg
Chain of PAR2 (Mus musculus, UniProt P55086) (P55086 26-399): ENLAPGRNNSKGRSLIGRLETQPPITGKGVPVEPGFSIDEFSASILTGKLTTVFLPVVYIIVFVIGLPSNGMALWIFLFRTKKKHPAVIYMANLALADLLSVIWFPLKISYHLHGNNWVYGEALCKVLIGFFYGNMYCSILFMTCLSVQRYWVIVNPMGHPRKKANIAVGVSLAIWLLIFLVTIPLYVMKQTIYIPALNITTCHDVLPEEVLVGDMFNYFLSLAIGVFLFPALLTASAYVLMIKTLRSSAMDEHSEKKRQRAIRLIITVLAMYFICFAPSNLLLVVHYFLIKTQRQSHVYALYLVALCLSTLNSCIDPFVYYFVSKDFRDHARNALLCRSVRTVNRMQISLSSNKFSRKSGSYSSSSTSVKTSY
Protocol: (A) Mast cells were treated with 2 mg/mL of mast cell degranulating agent 48/80 or 2% 1-carrageenan/4% kaolin. […] (B) P2pal-18S inhibits human neutrophil chemotaxis (n=6) to mast cell media. Human neutrophils were incubated with […] P2pal-18S, or […] mast cell tryptase inhibitor APC-366 and allowed to migrate 30 min toward CM from mast cells. (C) C57BL/6 mice (n=5) were pretreated with the tryptase inhibitor APC-366 (5 mg/kg, s.c.) or vehicle (20% DMSO) and then challenged with intraplantar injection of 1-carrageenan/kaolin. (D) Mast cell conditioned media (30 μL of 1-carrageenan/kaolin stimulated media) was injected into the hindpaws of C57BL/6 mice treated with 10 mg/kg P2pal-18S or vehicle (n=5). Data represent mean±SEM. #, P=0.07, *, P<0.05 and **, P<0.005. (E) Mast cell-deficient mice have a significant reduction in 1-carrageenan/kaolin induced paw edema (8 h time point, n=4-6) as compared to littermate controls. Mast-cell deficient mice or littermate controls with intact mast cells were treated with P2pal-18S (10 mg/kg, s.c.) or vehicle and hind paws challenged with 1-carrageenan/kaolin irritant. Error bars represent mean±SEM.
To examine whether mast cells and mast cell tryptase were activating PAR2 in the paw edema model in vivo, mice were depleted of mast cells through pretreatment with compound 48/80 (Carvalho M et al. Eur J Pharmacol (2005), 525: 161-169). […]

PAR2 [4] = target: T1, PAR2; experiment: PAR2 binding to avidin beads coupled with PAR2 i3 loop 18S peptide
PAR1 = target: T2, PAR1 (Homo sapiens, UniProt P25116); experiment: Human platelet Ca2+ flux stimulated with SFLLRN; assay type: cell-based; design: endogenous in cells; host or cells: A549, HOP62, H1299, H522, H226, HOP92 lung carcinoma lines; details: human platelets
T2 sequence (P25116 22-425): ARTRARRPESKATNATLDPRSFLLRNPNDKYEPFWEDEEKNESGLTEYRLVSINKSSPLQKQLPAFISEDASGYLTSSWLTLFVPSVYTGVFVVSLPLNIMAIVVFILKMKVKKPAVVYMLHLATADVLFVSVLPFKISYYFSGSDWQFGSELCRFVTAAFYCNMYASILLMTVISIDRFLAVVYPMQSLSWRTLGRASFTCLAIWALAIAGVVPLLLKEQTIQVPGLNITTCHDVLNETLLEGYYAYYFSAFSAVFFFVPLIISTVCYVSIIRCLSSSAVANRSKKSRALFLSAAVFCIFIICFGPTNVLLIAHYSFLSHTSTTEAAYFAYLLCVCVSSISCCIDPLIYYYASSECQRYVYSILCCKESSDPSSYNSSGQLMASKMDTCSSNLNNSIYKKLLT
Description: FIG. 8 illustrates data that show membrane-tethered PAR1-i3 and i1 pepducins block Ca^2+ flux and migration. (A): Model of PAR1 based on the […] structure of rhodopsin from Swift et al., 2006. Protease cleaved receptor results in generation of a new tethered ligand. The topologic arrangement of the […] to i4 loops and G proteins are illustrated. Schematic diagram of palmitoylated PAR1 i3 and i1 pepducins and their amino acid sequence composition are shown. (B): Effect of PAR1 pepducins on human platelets Ca^2+ flux. Platelets were preincubated with indicated concentrations of pepducins and stimulated with SFLLRN. Effect of blockade is expressed as the percentage of full Ca^2+ signal generated with SFLLRN in the absence of inhibitors. (C): Migration of A549 cells toward 0.3 nmol/L thrombin or 10 μmol/L […] in the presence or absence of 3 μmol/L P1pal-7, P1pal-10S, or P1pal-i1-11 after 18 hours. […] Cell migration is expressed as fold migration of ligand-mediated migration divided by basal migration.
First, it had been previously shown that PAR1 strongly couples to Gq in human platelets as assessed by Ca^++ signaling. In order to determine effect of i1 and i3 pepducins on PAR1 mediated Gq-PLCβ-lnsP3 signaling, human platelets were pretreated with PAR1 pepducins and stimulated with SFLLRN, before the rate of Ca^++ flux was measured.

T1 sequence (P55085 26-397): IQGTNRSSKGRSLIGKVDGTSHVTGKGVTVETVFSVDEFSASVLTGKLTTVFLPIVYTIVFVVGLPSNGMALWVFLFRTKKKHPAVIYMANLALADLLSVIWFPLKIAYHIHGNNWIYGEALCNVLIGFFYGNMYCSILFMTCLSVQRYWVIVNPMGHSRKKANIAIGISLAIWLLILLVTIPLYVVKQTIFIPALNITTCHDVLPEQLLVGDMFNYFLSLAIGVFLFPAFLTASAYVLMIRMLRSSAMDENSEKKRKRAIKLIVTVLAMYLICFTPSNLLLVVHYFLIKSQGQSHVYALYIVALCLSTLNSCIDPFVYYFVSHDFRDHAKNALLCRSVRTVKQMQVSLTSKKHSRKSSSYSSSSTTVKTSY

Inhibition of PAR2-dependent PLC-b inositol phosphate formation (PAR2 [1]) | Inhibition of ligand-dependent endocytosis of PAR2 (PAR2 [2]) | Decrease in peak development of edema (PAR2 [3]; at 4 h, mast cell media intraplantar) | Protection against edema at later times (PAR2 [3]; at 8 h and thereafter) | Binding of PAR2 to peptide-coupled avidin beads versus beads alone (PAR2 [4]) | SMILES | Extent of inhibition of calcium mobilization (PAR1)
can inhibit | did not inhibit | 50% | complete protection | enhanced binding | CCCCCCCCCCCCCCCC(=O)N[C@@H](CCCNC(=N)N)C(=O)N[C@@H](CO)C(=O)N[C@@H](CO)C(=O)N[C@@H](C)C(=O)N[C@@H](CCSC)C(=O)N[C@@H](CC(=O)O)C(=O)N[C@@H](CCC(=O)O)C(=O)N[C@@H](CC(N)=O)C(=O)N[C@@H](CO)C(=O)N[C@@H](CCC(=O)O)C(=O)N[C@@H](CCCCN)C(=O)N[C@@H](CCCCN)C(=O)N[C@@H](CCCNC(=N)N)C(=O)N[C@@H](CCCCN)C(=O)N[C@@H](CO)C(=O)N[C@@H](C)C(=O)N[C@H](C(=O)N[C@@H](CCCCN)C(N)=O)[C@@H](C)CC [P2pal-18S] | 
 |  |  |  |  | CCCCCCCCCCCCCCCC(=O)N[C@H](C(=O)N[C@@H](CC(C)C)C(=O)N[C@@H](CCCCN)C(=O)N[C@@H](CCSC)C(=O)N[C@@H](CCCCN)C(=O)N[C@H](C(=O)N[C@@H](CCCCN)C(=O)N[C@@H](CCCCN)C(=O)N1CCC[C@H]1C(=O)N[C@@H](C)C(=O)N[C@H](C(N)=O)C(C)C)C(C)C)[C@@H](C)CC [P1pal-i1-11] (Palmitoyl-ILKMKVKKPAV-NH2) | less effective in inhibiting the Gq mediated calcium signal
